Measurements taken from patent publication US10982100B2, “Slippery liquid-infused porous surfaces and biological applications thereof” (President and Fellows of Harvard College, priority 2011, dated 2021).

What was measured:
Assay type in all cases: physicochemical
[1] = Surface tension of polar and non-polar liquids
Excerpt: Fluid-fluid interfacial tension can be measured by many well-established techniques, such as the Wilhelmy plate method, the Du Noüy ring method, and the pendant drop method (e.g., see Drelich et al., in Encyclopedia of Surface and Colloid Science, pp. 3152-3166, Marcel Dekker Inc, 2002, the contents of which is incorporated by reference herein in its entirety). Among all of the techniques, the pendant drop method is among the most popular and versatile technique, which can be easily extended to a two-liquid system. The pendant drop method measures the shape of a fluid-fluid interface and quantifies the shape distortion due to the competition between the fluid-fluid interfacial tension and gravity. In practice, a drop of denser fluid (e.g., Object A) is suspended by a syringe needle in medium X (i.e., air/water/the lubricating fluid). Owing to the influence of gravity, the denser liquid droplet will be deformed as the liquid volume increases. The shape profile of the liquid droplet is captured by an optical system and subsequently analyzed by a computer software when the liquid volume is increased to the maximum possible size (i.e., before the liquid drop is detached from the syringe needle). The interfacial tension of the fluid-fluid interface, γ, can then be deduced from the formula, γ=ΔρgD^2/H, where Δρ is the density difference between the two immiscible fluids, g is gravity, D is equatorial diameter of the liquid droplet, and H is drop shape dependent parameters which is a function of the shape profile of the droplet.

[2] = Stable lubricating film for solid-Liquid A-Liquid B combinations, theory versus experiment; set-up: key: “Y” indicates that Liquid B forms a stable lubricating film, and is not displaced by Object A; “N” indicates that Liquid B is displaced by Object A; conditions: label = Liquid A
Excerpt: When the relationship holds, the lubricating liquid will stay in intimate contact with the porous solid without being displaced by Liquid A. Note that the equilibrium contact angles were estimated from the average values of the advancing and receding contact angles of Liquid A and the lubricating liquid on the flat solid surface. Satisfying the relationship can help promote the operation stability of the slippery surface where the liquid layer is substantially completely covered by the test liquid (i.e., two-phase environments that involve a single fluid interface between the test liquid and the liquid layer) and where the liquid layer contacts a droplet of the test fluid as well as air (i.e., three-phase environments that involve three fluid interfaces of (i) test liquid-liquid layer, (ii) test liquid-air, and (iii) liquid layer-air). […] Notice that γA and γB are equivalent to γAX and γBX defined in the text, and medium X is air specifically in this context. Variable γAB represents the interfacial tension for Object A-Liquid B interface. […] M., Ind. Eng. Chem. 56, 40-42, 1964; Israelachvili, J. N. Intermolecular and Surface Forces, Academic Press, 2011). The dispersion force contribution of water surface tension […]., Ind. Eng. Chem. 56, 40-42, 1964). S. Epoxy represents silanized epoxy resin substrate.

[3] = Contact angles of various liquids on flat solids; set-up: unit not given here
Procedure: The behavior of liquids on surfaces is described by an equilibrium contact angle. An equilibrium contact angle, θ, is the angle at which a liquid/vapor interface meets a solid surface, which is determined by the interactions across the three interfaces, e.g., solid/liquid/vapor. […] The upper limit is known as the apparent advancing contact angle (θA), whereas the lower limit is referred as the apparent receding contact angle (θR). The difference between these values is known as contact angle hysteresis (i.e., Δθ=θA−θR, where θA≥θ≥θR), which characterizes the liquid repellency of a surface. Conventionally, equilibrium contact angle can be roughly estimated by the average of the advancing and receding angles (i.e., θ=(θA+θR)/2), or by a static contact angle, θstatic (i.e., θ=θstatic).
In practice, contact angle measurement can be performed by a number of different well-established techniques, such as the sessile drop method and the Wilhelmy method. In particular, the sessile drop method is among the most popular technique for contact angle measurement. In this technique, a liquid droplet is deposited on a targeted solid surface, where the liquid profile is captured by an optical system of a goniometer and geometrically fitted to obtain the contact angle. The contact angle measured from a static liquid droplet deposited on the surface is known as the static contact angle, θstatic. Using the same system, advancing contact angle, θA, can be measured while the volume of the drop is increasing until the wetting line starts to advance. Receding contact angle, θR, can be measured by decreasing the volume of the drop and determining the contact angle just before the wetting line recedes. Alternatively, the advancing and the receding angles of the liquid drop can also be determined by gradually tilting the solid surface until the liquid drop starts to move.

[4] = Solid Epoxy, Liquid B FC-70, R 2
[5] = Solid S. Epoxy (silanized epoxy resin), Liquid B FC-70, R 2
[6] = Solid Silicon, Liquid B H2O, R 1
[7] = flat solid S. (silanized epoxy)
[8] = Solid Epoxy, Liquid B FC-70, R 1

Compound: CCCCCC [Hexane]
- Surface Tension [1]: 18.6 ± 0.5 mN/m
- Stable Film? Exp. [2, 4]: N
- Stable Film? Theory [2, 4]: N
- Stable Film? Exp. [2, 5]: Y
- Stable Film? Theory [2, 5]: Y
- Stable Film? Exp. [2, 6]: N
- Stable Film? Theory [2, 6]: Y/N
- Measured contact angle θadv ([3]; flat solid Epoxy): ~0.0
- Measured contact angle θrec ([3]; flat solid Epoxy): ~0.0
- Measured contact angle θstatic ([3]; flat solid Epoxy): ~0.0
- Measured contact angle θadv [3, 7]: 52.5 ± 0.3
- Measured contact angle θrec [3, 7]: 22.8 ± 1.7
- Measured contact angle θstatic [3, 7]: 40.1 ± 4.2
- Measured contact angle θadv ([3]; flat solid Silicon): <5.0
- Measured contact angle θrec ([3]; flat solid Silicon): ~0.0
- Measured contact angle θstatic ([3]; flat solid Silicon): <5.0

Compound: CCCCC [Pentane]
- Surface Tension [1]: 17.2 ± 0.5 mN/m
- Stable Film? Exp. [2, 4]: N
- Stable Film? Theory [2, 4]: N
- Stable Film? Exp. [2, 5]: Y
- Stable Film? Theory [2, 5]: Y
- Stable Film? Exp. [2, 6]: N
- Stable Film? Theory [2, 6]: Y/N
- Measured contact angle θadv ([3]; flat solid Epoxy): ~0.0
- Measured contact angle θrec ([3]; flat solid Epoxy): ~0.0
- Measured contact angle θstatic ([3]; flat solid Epoxy): ~0.0
- Measured contact angle θadv [3, 7]: 36.4 ± 2.5
- Measured contact angle θrec [3, 7]: 17.0 ± 1.8
- Measured contact angle θstatic [3, 7]: 30.8 ± 3.1
- Measured contact angle θadv ([3]; flat solid Silicon): <5.0
- Measured contact angle θrec ([3]; flat solid Silicon): ~0.0
- Measured contact angle θstatic ([3]; flat solid Silicon): <5.0

Compound: OCCO [Ethylene Glycol]
- Surface Tension [1]: 48.1 ± 0.3 mN/m

Compound: CCCCCCC [Heptane]
- Surface Tension [1]: 19.9 ± 0.3 mN/m

Compound: CCCCCCCCCCCCCCCC [Hexadecane]
- Surface Tension [1]: 27.2 ± 0.2 mN/m
- Stable Film? Exp. [2, 8]: N
- Stable Film? Theory [2, 8]: Y/N
- Stable Film? Exp. [2, 4]: N
- Stable Film? Theory [2, 4]: N
- Stable Film? Exp. [2, 5]: Y
- Stable Film? Theory [2, 5]: Y
- Stable Film? Exp. [2, 6]: N
- Stable Film? Theory [2, 6]: N
- Measured contact angle θadv ([3]; flat solid Epoxy): 32.8 ± 1.4
- Measured contact angle θrec ([3]; flat solid Epoxy): 25.7 ± 0.9
- Measured contact angle θstatic ([3]; flat solid Epoxy): 30.6 ± 0.4
- Measured contact angle θadv [3, 7]: 76.3 ± 1.4
- Measured contact angle θrec [3, 7]: 50.0 ± 3.9
- Measured contact angle θstatic [3, 7]: 70.5 ± 2.0
- Measured contact angle θadv ([3]; flat solid Silicon): 17.3 ± 1.6
- Measured contact angle θrec ([3]; flat solid Silicon): ~0.0
- Measured contact angle θstatic ([3]; flat solid Silicon): 5.6 ± 1.1

Compound: CCCCCCCCCCCCC [Tridecane]
- Surface Tension [1]: 25.9 ± 0.1 mN/m
- Stable Film? Exp. [2, 8]: N
- Stable Film? Theory [2, 8]: Y/N
- Stable Film? Exp. [2, 4]: N
- Stable Film? Theory [2, 4]: N
- Stable Film? Exp. [2, 5]: Y
- Stable Film? Theory [2, 5]: Y
- Measured contact angle θadv ([3]; flat solid Epoxy): 28.3 ± 1.1
- Measured contact angle θrec ([3]; flat solid Epoxy): 25.4 ± 0.7
- Measured contact angle θstatic ([3]; flat solid Epoxy): 26.9 ± 1.7
- Measured contact angle θadv [3, 7]: 72.8 ± 0.2
- Measured contact angle θrec [3, 7]: 48.1 ± 3.1
- Measured contact angle θstatic [3, 7]: 63.5 ± 2.8

Compound: CCCCCCCCC [Nonane]
- Surface Tension [1]: 22.6 ± 0.2 mN/m

Compound: O [Water]
- Surface Tension [1]: 72.4 ± 0.1 mN/m
- Stable Film? Exp. [2, 8]: N
- Stable Film? Theory [2, 8]: Y/N
- Stable Film? Exp. [2, 4]: Y
- Stable Film? Theory [2, 4]: Y/N
- Stable Film? Exp. ([2]; Solid PDMS, Liquid B PDMS, R 1): Y
- Stable Film? Theory ([2]; Solid PDMS, Liquid B PDMS, R 1): Y
- Stable Film? Exp. ([2]; Solid PP, Liquid B PDMS, R 1): Y
- Stable Film? Theory ([2]; Solid PP, Liquid B PDMS, R 1): Y
- Stable Film? Exp. ([2]; Solid PP, Liquid B PDMS, R 2): Y
- Stable Film? Theory ([2]; Solid PP, Liquid B PDMS, R 2): Y
- Stable Film? Exp. ([2]; Solid PTFE, Liquid B PDMS, R 2): Y
- Stable Film? Theory ([2]; Solid PTFE, Liquid B PDMS, R 2): Y
- Stable Film? Exp. [2, 5]: Y
- Stable Film? Theory [2, 5]: Y
- Measured contact angle θadv ([3]; flat solid Epoxy): 100.3 ± 3.1
- Measured contact angle θrec ([3]; flat solid Epoxy): 67.0 ± 4.5
- Measured contact angle θstatic ([3]; flat solid Epoxy): 92.6 ± 1.8
- Measured contact angle θadv [3, 7]: 118.9 ± 1.7
- Measured contact angle θrec [3, 7]: 90.8 ± 0.9
- Measured contact angle θstatic [3, 7]: 113.1 ± 2.8
- Measured contact angle θadv ([3]; flat solid Silicon): 14.4 ± 2.7
- Measured contact angle θrec ([3]; flat solid Silicon): ~0.0
- Measured contact angle θstatic ([3]; flat solid Silicon): 13.1 ± 1.7

Compound: OCC(O)CO [Glycerol]
- Surface Tension [1]: 60.3 ± 1.1 mN/m

Compound: CCCCCCCCCCCC [Dodecane]
- Surface Tension [1]: 25.3 ± 0.1 mN/m

Compound: CCCCCCCC [Octane]
- Surface Tension [1]: 21.4 ± 0.2 mN/m
- Stable Film? Exp. [2, 4]: N
- Stable Film? Theory [2, 4]: N
- Stable Film? Exp. [2, 5]: Y
- Stable Film? Theory [2, 5]: Y
- Stable Film? Exp. [2, 6]: N
- Stable Film? Theory [2, 6]: N
- Measured contact angle θadv ([3]; flat solid Epoxy): 9.7 ± 1.2
- Measured contact angle θrec ([3]; flat solid Epoxy): 6.1 ± 0.2
- Measured contact angle θstatic ([3]; flat solid Epoxy): 7.9 ± 0.7
- Measured contact angle θadv [3, 7]: 57.7 ± 2.5
- Measured contact angle θrec [3, 7]: 23.8 ± 4.0
- Measured contact angle θstatic [3, 7]: 50.7 ± 3.0
- Measured contact angle θadv ([3]; flat solid Silicon): <5.0
- Measured contact angle θrec ([3]; flat solid Silicon): ~0.0
- Measured contact angle θstatic ([3]; flat solid Silicon): <5.0

Compound: CCCCCCCCCCC [Undecane]
- Surface Tension [1]: 24.6 ± 0.2 mN/m

Compound: CCCCCCCCCC [Decane]
- Surface Tension [1]: 23.6 ± 0.1 mN/m
- Stable Film? Exp. [2, 8]: N
- Stable Film? Theory [2, 8]: N
- Stable Film? Exp. [2, 4]: N
- Stable Film? Theory [2, 4]: N
- Stable Film? Exp. [2, 5]: Y
- Stable Film? Theory [2, 5]: Y
- Stable Film? Exp. [2, 6]: N
- Stable Film? Theory [2, 6]: N
- Measured contact angle θadv ([3]; flat solid Epoxy): 15.0 ± 1.6
- Measured contact angle θrec ([3]; flat solid Epoxy): 13.7 ± 0.9
- Measured contact angle θstatic ([3]; flat solid Epoxy): 14.2 ± 0.7
- Measured contact angle θadv [3, 7]: 66.0 ± 4.1
- Measured contact angle θrec [3, 7]: 38.5 ± 0.7
- Measured contact angle θstatic [3, 7]: 60.0 ± 2.8
- Measured contact angle θadv ([3]; flat solid Silicon): 7.9 ± 1.0
- Measured contact angle θrec ([3]; flat solid Silicon): ~0.0
- Measured contact angle θstatic ([3]; flat solid Silicon): <5.0
